{"source": "paper PMC3961306", "about": "“Comparison of the Cancer Gene Targeting and Biochemical Selectivities of All Targeted Kinase Inhibitors Approved for Clinical Use” (PLoS ONE, 2014)", "test_system": "forty-four human cancer cell lines", "assay": "Cell proliferation assay (ATPlite, 72 hours) in the 44 cell line Oncolines panel", "assay_type": "cell-based", "note": "Values joined by “and” are separate entries in the source; they are usually repeats but may differ in a detail not shown here. Identical values can stand only once. Like-named read-outs stand apart in the source and are kept apart here."}
{"smiles": "COc1cccc2c1C(=O)c1c(O)c3c(c(O)c1C2=O)C[C@@](O)(C(=O)CO)C[C@@H]3O[C@H]1C[C@H](N)[C@H](O)[C@H](C)O1", "note": "[doxorubicin]", "values": [{"measurement": "IC50", "setting": "Homo sapiens, 769-P, cell line 769-P, read-out: cell panel IC50, 769-P", "result": 0.113, "unit": "µM"}, {"measurement": "IC50", "setting": "Homo sapiens, 786-0, cell line 786-0, read-out: cell panel IC50, 786-0", "result": 0.125, "unit": "µM"}, {"measurement": "IC50", "setting": "Homo sapiens, A 172, read-out: cell panel IC50, A-172, cell line A-172", "result": 0.093, "unit": "µM"}, {"measurement": "IC50", "setting": "Homo sapiens, A498, read-out: cell panel IC50, A-498, cell line A-498", "result": 0.096, "unit": "µM"}, {"measurement": "IC50", "setting": "Homo sapiens, A549, read-out: cell panel IC50, A-549, cell line A-549", "result": 0.082, "unit": "µM"}, {"measurement": "IC50", "setting": "Homo sapiens, A-375, cell line A375, read-out: cell panel IC50, A375", "result": 0.038, "unit": "µM"}, {"measurement": "IC50", "setting": "Homo sapiens, A-427, read-out: cell panel IC50, A-427, cell line A-427", "result": 0.027, "unit": "µM"}, {"measurement": "IC50", "setting": "Homo sapiens, ACHN, cell line ACHN, read-out: cell panel IC50, ACHN", "result": 0.061, "unit": "µM"}, {"measurement": "IC50", "setting": "Homo sapiens, AN3-CA, cell line AN3 CA, read-out: cell panel IC50, AN3 CA", "result": 0.075, "unit": "µM"}, {"measurement": "IC50", "setting": "Homo sapiens, AU565, read-out: cell panel IC50, AU-565, cell line AU-565", "result": 0.073, "unit": "µM"}, {"measurement": "IC50", "setting": "Homo sapiens, BT-20, cell line BT-20, read-out: cell panel IC50, BT-20", "result": 0.19, "unit": "µM"}, {"measurement": "IC50", "setting": "Homo sapiens, BT-549, read-out: cell panel IC50, BT-549, cell line BT-549", "result": 0.076, "unit": "µM"}, {"measurement": "IC50", "setting": "Homo sapiens, BXPC-3, cell line BxPC-3, read-out: cell panel IC50, BxPC-3", "result": 0.172, "unit": "µM"}, {"measurement": "IC50", "setting": "Homo sapiens, C-33-A, cell line C-33 A, read-out: cell panel IC50, C-33 A", "result": 0.026, "unit": "µM"}, {"measurement": "IC50", "setting": "Homo sapiens, CAL-27, cell line CAL 27, read-out: cell panel IC50, CAL 27", "result": 0.021, "unit": "µM"}, {"measurement": "IC50", "setting": "Homo sapiens, CCRF-CEM, cell line CCRF-CEM, read-out: cell panel IC50, CCRF-CEM", "result": 0.017, "unit": "µM"}, {"measurement": "IC50", "setting": "Homo sapiens, DLD-1, cell line DLD-1, read-out: cell panel IC50, DLD-1", "result": 0.437, "unit": "µM"}, {"measurement": "IC50", "setting": "Homo sapiens, FaDu, cell line FaDu, read-out: cell panel IC50, FaDu", "result": 0.045, "unit": "µM"}, {"measurement": "IC50", "setting": "Homo sapiens, HCT-15, cell line HCT-15, read-out: cell panel IC50, HCT-15", "result": 0.237, "unit": "µM"}, {"measurement": "IC50", "setting": "Homo sapiens, HCT-116, read-out: cell panel IC50, HCT-116, cell line HCT-116", "result": 0.044, "unit": "µM"}, {"measurement": "IC50", "setting": "Homo sapiens, Hs-578T, cell line Hs 578T, read-out: cell panel IC50, Hs 578T", "result": 0.08, "unit": "µM"}, {"measurement": "IC50", "setting": "Homo sapiens, Jurkat E6.1, cell line Jurkat E6.1, read-out: cell panel IC50, Jurkat E6.1", "result": 0.026, "unit": "µM"}, {"measurement": "IC50", "setting": "Homo sapiens, K562, read-out: cell panel IC50, K-562, cell line K-562", "result": 0.055, "unit": "µM"}, {"measurement": "IC50", "setting": "Homo sapiens, LoVo, cell line LoVo, read-out: cell panel IC50, LoVo", "result": 0.049, "unit": "µM"}, {"measurement": "IC50", "setting": "Homo sapiens, MG-63, cell line MG-63, read-out: cell panel IC50, MG-63", "result": 0.056, "unit": "µM"}, {"measurement": "IC50", "setting": "Homo sapiens, MOLT-4, cell line MOLT-4, read-out: cell panel IC50, MOLT-4", "result": 0.012, "unit": "µM"}, {"measurement": "IC50", "setting": "Homo sapiens, MeWo, cell line MeWo, read-out: cell panel IC50, MeWo", "result": 0.204, "unit": "µM"}, {"measurement": "IC50", "setting": "Homo sapiens, NCI-H82, cell line NCI-H82, read-out: cell panel IC50, NCI-H82", "result": 0.052, "unit": "µM"}, {"measurement": "IC50", "setting": "Homo sapiens, NCI-H460, cell line NCI-H460, read-out: cell panel IC50, NCI-H460", "result": 0.021, "unit": "µM"}, {"measurement": "IC50", "setting": "Homo sapiens, OVCAR-3, cell line OVCAR-3, read-out: cell panel IC50, OVCAR-3", "result": 0.259, "unit": "µM"}, {"measurement": "IC50", "setting": "Homo sapiens, RPMI-7951, cell line RPMI-7951, read-out: cell panel IC50, RPMI-7951", "result": 0.028, "unit": "µM"}, {"measurement": "IC50", "setting": "Homo sapiens, SK-N-AS, cell line SK-N-AS, read-out: cell panel IC50, SK-N-AS", "result": 0.072, "unit": "µM"}, {"measurement": "IC50", "setting": "Homo sapiens, SW48, cell line SW48, read-out: cell panel IC50, SW48", "result": 0.208, "unit": "µM"}, {"measurement": "IC50", "setting": "Homo sapiens, SW480, cell line SW480, read-out: cell panel IC50, SW480", "result": 0.353, "unit": "µM"}, {"measurement": "IC50", "setting": "Homo sapiens, SW-620, cell line SW620, read-out: cell panel IC50, SW620", "result": 0.296, "unit": "µM"}, {"measurement": "IC50", "setting": "Homo sapiens, U2OS, cell line U-2 OS, read-out: cell panel IC50, U-2 OS", "result": 0.109, "unit": "µM"}, {"measurement": "IC50", "setting": "Homo sapiens, U-87 MG, 72 h, U-87 MG cell line, ATPlite, 72 hours, read-out: IC50 in cell proliferation assay (table S5 cellpanel data)", "result": 0.111, "unit": "µM"}, {"measurement": "IC50", "setting": "Homo sapiens, cell line J82, read-out: cell panel IC50, J82", "result": 0.151, "unit": "µM"}, {"measurement": "IC50", "setting": "Homo sapiens, cell line PA-1, read-out: cell panel IC50, PA-1", "result": 0.004, "unit": "µM"}, {"measurement": "IC50", "setting": "Homo sapiens, cell line SJCRH30, read-out: cell panel IC50, SJCRH30", "result": 0.071, "unit": "µM"}, {"measurement": "IC50", "setting": "Homo sapiens, cell line SR, read-out: cell panel IC50, SR", "result": 0.006, "unit": "µM"}, {"measurement": "IC50", "setting": "U-87 MG cell line, ATPlite, 72 hours, read-out: IC50 in cell proliferation assay (table S5 cellpanel data)", "result": 0.089, "unit": "µM"}, {"measurement": "IC50", "setting": "cell line 769-P, read-out: cell panel IC50, 769-P", "result": "0.142 µM and 0.144 µM"}, {"measurement": "IC50", "setting": "cell line 786-0, read-out: cell panel IC50, 786-0", "result": 0.103, "unit": "µM"}, {"measurement": "IC50", "setting": "cell line A375, read-out: cell panel IC50, A375", "result": "0.035 µM and 0.051 µM"}, {"measurement": "IC50", "setting": "cell line ACHN, read-out: cell panel IC50, ACHN", "result": 0.084, "unit": "µM"}, {"measurement": "IC50", "setting": "cell line AN3 CA, read-out: cell panel IC50, AN3 CA", "result": "0.081 µM and 0.094 µM"}, {"measurement": "IC50", "setting": "cell line BT-20, read-out: cell panel IC50, BT-20", "result": "0.207 µM and 0.157 µM"}, {"measurement": "IC50", "setting": "cell line BxPC-3, read-out: cell panel IC50, BxPC-3", "result": "0.227 µM and 0.286 µM"}, {"measurement": "IC50", "setting": "cell line CAL 27, read-out: cell panel IC50, CAL 27", "result": 0.02, "unit": "µM"}, {"measurement": "IC50", "setting": "cell line CCRF-CEM, read-out: cell panel IC50, CCRF-CEM", "result": 0.02, "unit": "µM"}, {"measurement": "IC50", "setting": "cell line DLD-1, read-out: cell panel IC50, DLD-1", "result": "0.429 µM and 0.346 µM"}, {"measurement": "IC50", "setting": "cell line FaDu, read-out: cell panel IC50, FaDu", "result": "0.047 µM and 0.057 µM"}, {"measurement": "IC50", "setting": "cell line HCT-15, read-out: cell panel IC50, HCT-15", "result": "0.254 µM and 0.276 µM"}, {"measurement": "IC50", "setting": "cell line Hs 578T, read-out: cell panel IC50, Hs 578T", "result": "0.089 µM and 0.058 µM"}, {"measurement": "IC50", "setting": "cell line J82, read-out: cell panel IC50, J82", "result": "0.144 µM and 0.135 µM"}, {"measurement": "IC50", "setting": "cell line Jurkat E6.1, read-out: cell panel IC50, Jurkat E6.1", "result": "0.031 µM and 0.024 µM"}, {"measurement": "IC50", "setting": "cell line LoVo, read-out: cell panel IC50, LoVo", "result": 0.059, "unit": "µM"}, {"measurement": "IC50", "setting": "cell line MG-63, read-out: cell panel IC50, MG-63", "result": "0.067 µM and 0.087 µM"}, {"measurement": "IC50", "setting": "cell line MOLT-4, read-out: cell panel IC50, MOLT-4", "result": "0.011 µM and 0.013 µM"}, {"measurement": "IC50", "setting": "cell line MeWo, read-out: cell panel IC50, MeWo", "result": "0.226 µM and 0.264 µM"}, {"measurement": "IC50", "setting": "cell line NCI-H82, read-out: cell panel IC50, NCI-H82", "result": 0.065, "unit": "µM"}, {"measurement": "IC50", "setting": "cell line NCI-H460, read-out: cell panel IC50, NCI-H460", "result": 0.025, "unit": "µM"}, {"measurement": "IC50", "setting": "cell line OVCAR-3, read-out: cell panel IC50, OVCAR-3", "result": "0.314 µM and 0.276 µM"}, {"measurement": "IC50", "setting": "cell line PA-1, read-out: cell panel IC50, PA-1", "result": "0.00526 µM and 0.00646 µM"}, {"measurement": "IC50", "setting": "cell line RPMI-7951, read-out: cell panel IC50, RPMI-7951", "result": "0.033 µM and 0.032 µM"}, {"measurement": "IC50", "setting": "cell line SJCRH30, read-out: cell panel IC50, SJCRH30", "result": "0.062 µM and 0.043 µM"}, {"measurement": "IC50", "setting": "cell line SK-N-AS, read-out: cell panel IC50, SK-N-AS", "result": 0.1, "unit": "µM"}, {"measurement": "IC50", "setting": "cell line SR, read-out: cell panel IC50, SR", "result": "0.00654 µM and 0.01 µM"}, {"measurement": "IC50", "setting": "cell line SW48, read-out: cell panel IC50, SW48", "result": "0.112 µM and 0.121 µM"}, {"measurement": "IC50", "setting": "cell line SW480, read-out: cell panel IC50, SW480", "result": "0.315 µM and 0.369 µM"}, {"measurement": "IC50", "setting": "cell line SW620, read-out: cell panel IC50, SW620", "result": "0.354 µM and 0.446 µM"}, {"measurement": "IC50", "setting": "cell line U-2 OS, read-out: cell panel IC50, U-2 OS", "result": "0.115 µM and 0.153 µM"}, {"measurement": "IC50", "setting": "read-out: cell panel IC50, A-172, cell line A-172", "result": 0.095, "unit": "µM"}, {"measurement": "IC50", "setting": "read-out: cell panel IC50, A-427, cell line A-427", "result": "0.031 µM and 0.04 µM"}, {"measurement": "IC50", "setting": "read-out: cell panel IC50, A-498, cell line A-498", "result": "0.092 µM and 0.091 µM"}, {"measurement": "IC50", "setting": "read-out: cell panel IC50, A-549, cell line A-549", "result": 0.068, "unit": "µM"}, {"measurement": "IC50", "setting": "read-out: cell panel IC50, AU-565, cell line AU-565", "result": "0.094 µM and 0.079 µM"}, {"measurement": "IC50", "setting": "read-out: cell panel IC50, BT-549, cell line BT-549", "result": 0.09, "unit": "µM"}, {"measurement": "IC50", "setting": "read-out: cell panel IC50, HCT-116, cell line HCT-116", "result": "0.062 µM and 0.064 µM"}, {"measurement": "IC50", "setting": "read-out: cell panel IC50, K-562, cell line K-562", "result": 0.057, "unit": "µM"}]}
